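Briefly, cells in 96-well plates were exposed to five compound concentrations for 48 h, and endpoints were estimated by linear interpolation. GI50 = concentration required for 50% inhibition of growth.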 The source made the active and inactive calls. Cut-off read from the data, not from the text of the source: active = GI50 up to about 1.1 µM and inactive = higher.
Tests used:
Test in all cases: NCI tumour cell line growth inhibition, 48 h
786-0 = system: 786-0
A549 = system: A549
ACHN = system: ACHN
CAKI-1 = system: CAKI-1
CCRF-CEM = system: CCRF-CEM
COLO 205 = system: COLO 205
DLD-1 = system: DLD-1
DMS-114 = system: DMS-114
DMS-273 = system: DMS-273
EKVX = system: EKVX
HCC 2998 = system: HCC 2998
HCT-116 = system: HCT-116
HCT-15 = system: HCT-15
HL-60 = system: HL-60
HOP-18 = system: HOP-18
HOP-62 = system: HOP-62
HOP-92 = system: HOP-92
HT-29 = system: HT-29
IGROV-1 = system: IGROV-1
K562 = system: K562
KM-20L2 = system: KM-20L2
KM12 = system: KM12
LOX IMVI = system: LOX IMVI
LXFL 529 = system: LXFL 529
M14 = system: M14
M19-MEL = system: M19-MEL
MOLT-4 = system: MOLT-4
Malme-3M = system: Malme-3M
NCI-H226 = system: NCI-H226
NCI-H23 = system: NCI-H23
NCI-H460 = system: NCI-H460
NCI-H522 = system: NCI-H522
OVCAR-3 = system: OVCAR-3
OVCAR-4 = system: OVCAR-4
OVCAR-5 = system: OVCAR-5
OVCAR-8 = system: OVCAR-8
RPMI-8226 = system: RPMI-8226
RXF 393 = system: RXF 393
RXF 631 = system: RXF 631
SF-268 = system: SF-268
SF-295 = system: SF-295
SF-539 = system: SF-539
SK-MEL-28 = system: SK-MEL-28
SK-MEL-2 = system: SK-MEL-2
SK-MEL-5 = system: SK-MEL-5
SK-OV-3 = system: SK-OV-3
SN12C = system: SN12C
SNB-19 = system: SNB-19
SNB-75 = system: SNB-75
SNB-78 = system: SNB-78
SW-620 = system: SW-620
TK-10 = system: TK-10
U-251 = system: U-251
UACC-257 = system: UACC-257
UACC-62 = system: UACC-62
UO-31 = system: UO-31
XF498 = system: XF498
A498 = system: A498

OCC(O)C(O)c1nn(-c2ccccc2)c2nc3cc(Cl)c(Cl)cc3nc12 (stereo unspecified)
GI50 (786-0): 18.8 µM (inactive)
GI50 (A549): 15.6 µM (inactive)
GI50 (ACHN): 19.5 µM (inactive)
GI50 (CAKI-1): 16.6 µM (inactive)
GI50 (CCRF-CEM): 35.2 µM (inactive)
GI50 (COLO 205): 24.7 µM (inactive)
GI50 (DLD-1): 26.1 µM (inactive)
GI50 (DMS-114): 21 µM (inactive)
GI50 (DMS-273): 15.7 µM (inactive)
GI50 (EKVX): 26.2 µM (inactive)
GI50 (HCC 2998): 31.9 µM (inactive)
GI50 (HCT-116): 16.8 µM (inactive)
GI50 (HCT-15): 23.6 µM
GI50 (HL-60): 18.2 µM (inactive)
GI50 (HOP-18): 26.7 µM (inactive)
GI50 (HOP-62): 47.5 µM (inactive)
GI50 (HOP-92): 35.7 µM (inactive)
GI50 (HT-29): 21.9 µM (inactive)
GI50 (IGROV-1): 24.6 µM (inactive)
GI50 (K562): 13.3 µM (inactive)
GI50 (KM-20L2): 26.7 µM (inactive)
GI50 (KM12): 20.8 µM (inactive)
GI50 (LOX IMVI): 19.5 µM (inactive)
GI50 (LXFL 529): 20.6 µM (inactive)
GI50 (M14): 27.9 µM (inactive)
GI50 (M19-MEL): 28.8 µM (inactive)
GI50 (MOLT-4): 13.7 µM (inactive)
GI50 (Malme-3M): 17.2 µM (inactive)
GI50 (NCI-H226): 21.4 µM (inactive)
GI50 (NCI-H23): 41.5 µM (inactive)
GI50 (NCI-H460): 27.7 µM (inactive)
GI50 (NCI-H522): 26.1 µM (inactive)
GI50 (OVCAR-3): 27.4 µM (inactive)
GI50 (OVCAR-4): 24.7 µM (inactive)
GI50 (OVCAR-5): 14.8 µM (inactive)
GI50 (OVCAR-8): 20.4 µM (inactive)
GI50 (RPMI-8226): 8.93 µM (inactive)
GI50 (RXF 393): 21.2 µM (inactive)
GI50 (RXF 631): 18.9 µM (inactive)
GI50 (SF-268): 21.4 µM (inactive)
GI50 (SF-295): 31.4 µM (inactive)
GI50 (SF-539): 24 µM (inactive)
GI50 (SK-MEL-28): 41.3 µM (inactive)
GI50 (SK-MEL-2): 22.3 µM (inactive)
GI50 (SK-MEL-5): 26.4 µM (inactive)
GI50 (SK-OV-3): 30.6 µM (inactive)
GI50 (SN12C): 63.5 µM (inactive)
GI50 (SNB-19): 48.2 µM (inactive)
GI50 (SNB-75): 21.8 µM (inactive)
GI50 (SNB-78): 50.2 µM (inactive)
GI50 (SW-620): 28.6 µM (inactive)
GI50 (TK-10): 16.7 µM (inactive)
GI50 (U-251): 29.1 µM (inactive)
GI50 (UACC-257): 36.7 µM (inactive)
GI50 (UACC-62): 29.4 µM (inactive)
GI50 (UO-31): 5.98 µM (inactive)
GI50 (XF498): 28.5 µM (inactive)

NC(=O)C(=Cc1ccc(C(O)P(=O)(O)O)cc1)C(N)=O (stereo unspecified)
GI50 (786-0): > 100 µM (inactive)
GI50 (A498): > 100 µM (inactive)
GI50 (A549): > 100 µM (inactive)
GI50 (ACHN): > 100 µM (inactive)
GI50 (CAKI-1): > 100 µM (inactive)
GI50 (COLO 205): > 100 µM (inactive)
GI50 (DLD-1): > 100 µM (inactive)
GI50 (DMS-114): > 100 µM (inactive)
GI50 (DMS-273): > 100 µM (inactive)
GI50 (EKVX): > 100 µM (inactive)
GI50 (HCC 2998): > 100 µM (inactive)
GI50 (HCT-116): > 100 µM (inactive)
GI50 (HCT-15): > 100 µM
GI50 (HOP-18): > 100 µM (inactive)
GI50 (HOP-62): > 100 µM (inactive)
GI50 (HOP-92): > 100 µM (inactive)
GI50 (HT-29): > 100 µM (inactive)
GI50 (IGROV-1): > 100 µM (inactive)
GI50 (K562): > 100 µM (inactive)
GI50 (KM-20L2): > 100 µM (inactive)
GI50 (KM12): > 100 µM (inactive)
GI50 (LOX IMVI): > 100 µM (inactive)
GI50 (LXFL 529): > 100 µM (inactive)
GI50 (M14): > 100 µM (inactive)
GI50 (M19-MEL): > 100 µM (inactive)
GI50 (MOLT-4): > 100 µM (inactive)
GI50 (Malme-3M): > 100 µM (inactive)
GI50 (NCI-H23): > 100 µM (inactive)
GI50 (NCI-H460): > 100 µM (inactive)
GI50 (NCI-H522): > 100 µM (inactive)
GI50 (OVCAR-3): > 100 µM (inactive)
GI50 (OVCAR-4): > 100 µM (inactive)
GI50 (OVCAR-5): > 100 µM (inactive)
GI50 (OVCAR-8): > 100 µM (inactive)
GI50 (RPMI-8226): > 100 µM (inactive)
GI50 (RXF 393): > 100 µM (inactive)
GI50 (RXF 631): > 100 µM (inactive)
GI50 (SF-295): > 100 µM (inactive)
GI50 (SF-539): > 100 µM (inactive)
GI50 (SK-MEL-28): > 100 µM (inactive)
GI50 (SK-MEL-2): > 100 µM (inactive)
GI50 (SK-MEL-5): > 100 µM (inactive)
GI50 (SK-OV-3): > 100 µM (inactive)
GI50 (SN12C): > 100 µM (inactive)
GI50 (SNB-19): > 100 µM (inactive)
GI50 (SNB-75): > 100 µM (inactive)
GI50 (SNB-78): > 100 µM (inactive)
GI50 (SW-620): > 100 µM (inactive)
GI50 (TK-10): > 100 µM (inactive)
GI50 (U-251): > 100 µM (inactive)
GI50 (UACC-257): > 100 µM (inactive)
GI50 (UACC-62): > 100 µM (inactive)
GI50 (UO-31): > 100 µM (inactive)
GI50 (XF498): > 100 µM (inactive)
